Where “and” joins values, the source holds several entries; their conditions need not be identical. Equal entries are not always repeated. Entries after “also recorded” stand apart in the source; their conditions may differ. A value given as a limit tells only on which side of the number the result lay.

The first series has as its target T1, Nurr1 (Homo sapiens, UniProt P43354). The series is described as follows: Ligand efficiency metrics. The note with it: computed according to ref. 29.
Target sequence in this assay (P43354 whole entry): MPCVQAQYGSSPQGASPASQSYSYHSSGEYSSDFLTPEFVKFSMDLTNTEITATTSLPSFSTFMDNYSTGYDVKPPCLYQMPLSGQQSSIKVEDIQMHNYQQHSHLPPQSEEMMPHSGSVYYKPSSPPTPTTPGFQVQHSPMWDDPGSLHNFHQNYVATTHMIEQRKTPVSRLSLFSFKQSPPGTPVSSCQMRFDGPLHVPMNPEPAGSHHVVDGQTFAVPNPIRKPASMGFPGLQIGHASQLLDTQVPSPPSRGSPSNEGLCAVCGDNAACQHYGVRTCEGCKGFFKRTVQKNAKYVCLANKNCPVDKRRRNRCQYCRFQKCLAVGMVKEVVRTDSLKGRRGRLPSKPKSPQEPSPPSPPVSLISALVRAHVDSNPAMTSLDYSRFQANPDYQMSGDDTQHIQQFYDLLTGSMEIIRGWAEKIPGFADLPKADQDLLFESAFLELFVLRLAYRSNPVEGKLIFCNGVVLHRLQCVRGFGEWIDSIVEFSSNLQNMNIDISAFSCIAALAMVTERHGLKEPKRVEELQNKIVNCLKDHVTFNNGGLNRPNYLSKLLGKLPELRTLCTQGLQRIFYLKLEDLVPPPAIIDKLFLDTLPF
For `Cc1cc(N)c2cccc(Cl)c2n1` [Compound 4, 8-chloro-2-methylquinolin-4-amine], the “ligand efficiency (LE)” value was 0.50, the “lipophilic ligand efficiency (LLE)” value stood at 1.99 and the “size-independent ligand eff. (SILE)” value is 2.21. In the same order, the values of `Cc1nc2c(Cl)cccn2c1N` [Compound 8, 8-Chloro-2-methylimidazo[1,2-a]pyridine-3-amine] are 0.59, 3.28 and 2.45.

In another series the target is T2, Nurr1 LBD (Homo sapiens, UniProt P43354).
T2 construct: Nurr1 LBD protein (10-30 µM, expressed as described previously^21); made in house
T2 sequence (P43354 360-595 limits assumed): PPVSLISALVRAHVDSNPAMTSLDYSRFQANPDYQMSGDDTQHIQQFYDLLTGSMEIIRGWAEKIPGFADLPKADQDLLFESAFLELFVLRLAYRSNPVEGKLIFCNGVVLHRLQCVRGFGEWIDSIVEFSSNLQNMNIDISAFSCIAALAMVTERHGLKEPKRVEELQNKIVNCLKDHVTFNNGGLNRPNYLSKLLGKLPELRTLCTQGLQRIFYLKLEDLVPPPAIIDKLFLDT
The series is described as follows: Isothermal titration calorimetry (ITC). The note with it: ITC at 25°C. Type of series: binding. The protocol: Isothermal Titration Calorimetry (ITC). ITC experiments were conducted on an Affinity ITC instrument (TA Instruments, New Castle, DE) at 25°C with a stirring rate of 75 rpm. Nurr1 LBD protein (10-30 µM, expressed as described previously^21) in buffer (20 mM Tris pH 7.5, 100 mM NaCl, 5% glycerol) containing 1-4% DMSO was titrated with the test compounds (60-150 µM in the same buffer containing 1-4% DMSO) in 26 injections (1x 1 µL, 25x 3-4 µL) with an injection interval of 150 s. As control experiments, the test compounds were titrated to the buffer, and the buffer was titrated to the Nurr1 LBD protein under otherwise identical conditions. Results were analyzed using NanoAnalyze software (version 3.11.0, TA Instruments, New Castle, DE) with independent binding models.
With `Cc1nc2c(Cl)cccn2c1N` [Compound 8, 8-Chloro-2-methylimidazo[1,2-a]pyridine-3-amine], the Kd was 2700 nM. This counts as single-digit micromolar. Same read-out and setting: with `Cc1nc2c(Cl)cccn2c1NC(=O)c1ccc(-c2ccc(Cl)cc2)o1` [Compound 26] the figure was 700 nM. Same read-out and setting: with `Nc1c(-c2ccc(Cl)c(Cl)c2)nc2c(Cl)cccn12` [Compound 24, 8-Chloro-2-(3,4-dichlorophenyl)imidazo[1,2-a]pyridine-3-amine] the figure was 700 nM.

The next series concerns the target T1, Nurr1. The series can be described thus: Gal4-Nurr1 hybrid reporter gene assay in HEK293T cells. It is filed as cell-based. The arrangement: expressed in transfected cells; host or cells: HEK293T.
Conditions: not given
The protocol:
Hybrid reporter gene assays. Nurr1 modulation was determined in a Gal4 hybrid reporter gene assay in HEK293T cells (German Collection of Microorganisms and Cell Culture GmbH, DSMZ) using pFR-Luc (Stratagene, La Jolla, CA, USA; reporter), pRL-SV40 (Promega, Madison, WI, USA; internal control) and pFA-CMV-hNurr1-LBD^14, coding for the hinge region and ligand binding domain of the canonical isoform of human Nurr1. […] After 24 h, medium was changed to Opti-MEM without supplements and cells were transiently transfected using Lipofectamine LTX reagent (Invitrogen, Carlsbad, CA, USA) according to the manufacturer's protocol. Five hours after transfection, cells were incubated with the test compounds in Opti-MEM supplemented with penicillin (100 U/mL), streptomycin (100 µg/mL) and 0.1% DMSO for 16 h before luciferase activity was measured using the Dual-Glo Luciferase Assay System (Promega) according to the manufacturer's protocol on a Tecan Spark luminometer (Tecan Deutschland GmbH, Crailsheim, Germany). Firefly luminescence was divided by Renilla luminescence and multiplied by 1000 resulting in relative light units (RLU) to normalize for transfection efficiency and cell growth. Fold activation was obtained by dividing the mean RLU of test compound by the mean RLU of the untreated control. All samples were tested in at least three biologically independent experiments in duplicates. For dose-response curve fitting and calculation of EC50 values, the equation "[Agonist] vs. response -- Variable slope (four parameters)" was used in GraphPad Prism (version 7.00, GraphPad Software, La Jolla, CA, USA). Selectivity profiling was performed with identical procedures using pFA-CMV-Nur77-LBD^14, pFA-CMV-NOR-1-LBD^14, pFA-CMV-THRα-LBD^39, pFA-CMV-RARα-LBD^40, pFA-CMV-PPARα-LBD^41, pFA-CMV-PPARγ-LBD^41, pFA-CMV-PPARδ-LBD^41, pFA-CMV-LXRα-LBD^37, pFA-CMV-FXR-LBD^42 and pFA-CMV-hRXRα-LBD^43.
Target sequence in this assay (P43354 360-595 limits assumed): as above
With `Nc1c(-c2ccc(Cl)c(Cl)c2)nc2c(Cl)cccn12` [Compound 24, 8-Chloro-2-(3,4-dichlorophenyl)imidazo[1,2-a]pyridine-3-amine], the “increase in potency over 8” value worked out at 7 fold.

The series is the same for the next values; noted with them: Gal4-Nurr1 hybrid reporter gene assay; mean±SD; n≥3.
In turn, `Cc1ccc(-c2ccc(C(=O)Nc3c(C)nc4c(Cl)cccn34)o2)cc1` [Compound 32] returned an EC50 of 0.13 ± 0.02 µM.

Regarding `Cc1nc2c(Cl)cccn2c1NC(=O)c1ccc(-c2ccc(C(F)(F)F)cc2)o1` [Compound 31], the EC50 is 1.1 ± 0.3 µM.

For the molecule `Cc1nc2c(Cl)cccn2c1NC(=O)c1ccc(-c2ccccc2)o1` [Compound 27], the EC50 was found to be 4 ± 1 µM. Still for that read-out and setting: for `COc1ccc(-c2ccc(C(=O)Nc3c(C)nc4c(Cl)cccn34)o2)cc1` [Compound 34] the value was 0.16 ± 0.06 µM; for `Cc1cc(N)c2cccc(Cl)c2n1` [Compound 4, 8-chloro-2-methylquinolin-4-amine], 17 ± 6 µM; for `Cc1nc2c(Cl)cccn2c1N` [Compound 8, 8-Chloro-2-methylimidazo[1,2-a]pyridine-3-amine], 7 ± 1 µM. On the same count and under the same terms, for `Cc1nc2c(Cl)cccn2c1NC(=O)c1ccc(-c2ccc(OC(F)(F)F)cc2)o1` [Compound 33] the value was 0.8 ± 0.2 µM; for `Cc1nc2c(Cl)cccn2c1NC(=O)c1ccc(-c2ccc(Cl)cc2)o1` [Compound 26], 1.6 ± 0.5 µM. Molecule `Nc1c(-c2cccc(Cl)c2)nc2c(Cl)cccn12` [Compound 18] displayed an EC50 of 9 ± 3 µM.

Consider `Cc1nc2c(Cl)cccn2c1NC(=O)c1ccc(-c2ccccc2)s1` [Compound 28], for which the EC50 came out at 3.2 ± 0.4 µM. In turn, `CNc1ccc(-c2ccc(C(=O)Nc3c(C)nc4c(Cl)cccn34)o2)cc1` [Compound 35] came in with an EC50 of 0.3 ± 0.02 µM. Same read-out and setting: for `Cc1ccc(-c2nc3c(Cl)cccn3c2N)cc1` [Compound 20] the value was 12 ± 2 µM. In the case of `Nc1c(-c2ccc(Cl)c(Cl)c2)nc2c(Cl)cccn12` [Compound 24, 8-Chloro-2-(3,4-dichlorophenyl)imidazo[1,2-a]pyridine-3-amine], the midpoint of the response, the EC50, lay at 0.4 µM. The same measure, in the same setting: for `Cc1ccc(-c2nc3c(Cl)cccn3c2N)cc1C` [Compound 25] the value was 14 ± 2 µM; for `Nc1c(-c2ccc(Cl)cc2)nc2c(Cl)cccn12` [Compound 17], 15 ± 3 µM.

Still in this series, the particulars now being: maximum effect vs. 0.1% DMSO control; mean±SD; n≥3.
In turn, `Cc1ccc(-c2ccc(C(=O)Nc3c(C)nc4c(Cl)cccn34)o2)cc1` [Compound 32] returned a max. activation of 2.0±0.2 fold.

As for `Nc1c(-c2ccccc2)nc2c(Cl)cccn12` [Compound 15], the max. activation is reported as 1.4±0.1 fold. On to `Cc1nc2c(Cl)cccn2c1NC(=O)c1ccc(-c2ccccc2)o1` [Compound 27], for which the max. activation is recorded as 2.1±0.1 fold. The same measure, in the same setting: for `COc1ccc(-c2ccc(C(=O)Nc3c(C)nc4c(Cl)cccn34)o2)cc1` [Compound 34] the value was 1.7±0.1 fold; for `Cc1cc(N)c2cccc(Cl)c2n1` [Compound 4, 8-chloro-2-methylquinolin-4-amine], 1.7±0.1 fold.

Molecule `Cc1nc2c(Cl)cccn2c1N` [Compound 8, 8-Chloro-2-methylimidazo[1,2-a]pyridine-3-amine] displayed a max. activation of 2.0±0.1 fold. `CC(C)c1nc2c(Cl)cccn2c1N` [Compound 14] gave a max. activation below 1.2 fold. Same read-out and setting: for `Cc1cccc(-c2nc3c(Cl)cccn3c2N)c1` [Compound 21] the value was < 1.2-fold act. `Cc1nc2c(Cl)cccn2c1NC(=O)c1ccc(-c2ccc(Cl)cc2)o1` [Compound 26]: the max. activation stood at 1.8±0.1 fold.

The molecule `Nc1c(-c2cccc(Cl)c2)nc2c(Cl)cccn12` [Compound 18] had a max. activation of 1.7±0.1 fold.

In turn, `Cc1nc2c(Cl)cccn2c1NC(=O)c1ccc(-c2ccccc2)s1` [Compound 28] came in with a max. activation of 2.1±0.1 fold. Still for that read-out and setting: with `Nc1c(-c2ccoc2)nc2c(Cl)cccn12` [Compound 16] the figure was below 1.2 fold. Take `Cc1ccc(-c2nc3c(Cl)cccn3c2N)cc1` [Compound 20]: the max. activation is on record as 2.0±0.2 fold. The same measure, in the same setting: with `Nc1c(-c2ccc(Cl)c(Cl)c2)nc2c(Cl)cccn12` [Compound 24, 8-Chloro-2-(3,4-dichlorophenyl)imidazo[1,2-a]pyridine-3-amine] the figure was 1.8 fold and 1.8±0.1 fold. Same read-out and setting: for `Nc1c(-c2cccc(C(F)(F)F)c2)nc2c(Cl)cccn12` [Compound 23] the value was < 1.2-fold act; for `Nc1c(-c2ccc(C(F)(F)F)cc2)nc2c(Cl)cccn12` [Compound 22], < 1.2-fold act; for `Cc1ccc(-c2nc3c(Cl)cccn3c2N)cc1C` [Compound 25], 1.6±0.1 fold. The same measure, in the same setting: with `Nc1c(-c2ccc(Cl)cc2)nc2c(Cl)cccn12` [Compound 17] the figure was 1.7±0.2 fold.

Still in this series, the particulars now being: result in words, at 10 µM.
Take `Cc1nc2c(Cl)cccn2c1NC(=O)c1ccc(-c2ccccc2)cc1` [Compound 30]: the “EC50(Nurr1) (max. activation)” value is “inactive (10 µM)”.

The same series, now with this note: result in words, at 100 µM.
As for `Clc1cccn2ccnc12` [Compound 11], the “EC50(Nurr1) (max. activation)” value was “inactive (100 µM)”.

As for `CC(C)c1nc2c(Cl)cccn2c1N` [Compound 14], the “EC50(Nurr1) (max. activation)” value was “inactive”. The same measure, in the same setting: for `Cc1nc2ccccn2c1N` [Compound 13] the value was “inactive (100 µM)”; for `Cc1nc2cccc(Cl)c2[nH]1` [Compound 7, 4-Chloro-2-methyl-benzimidazole], “failed to activate Nurr1; also recorded: inactive (100 µM)”; for `Cc1nc2cc(Cl)ccn2c1N` [Compound 9], “inactive (100 µM)”. With `Nc1cnc2c(Cl)cccn12` [Compound 12, 3-Amino-8-chloroimidazo[1,2-a]pyridine], the “EC50(Nurr1) (max. activation)” value is “inactive (100 µM)”. Same read-out and setting: for `Nc1c(-c2ccoc2)nc2c(Cl)cccn12` [Compound 16] the value was “inactive”; for `Nc1c(-c2ccccc2Cl)nc2c(Cl)cccn12` [Compound 19], “inactive (100 µM)”; for `Nc1cnc2ccccn12` [Compound 10], “inactive (100 µM)”.

Values taken from patent EP4596548A1, “NURR1 MODULATORS” (Ludwig-Maximilians-Universität, priority 2024, dated 2025).
